Patent publication US20030170287A1, “Drug delivery systems for the prevention and treatment of vascular diseases” (priority 2002, published 2003)

Legend:
[1] = Release of 40-O-(2-hydroxyethyl)-rapamycin from coated stents; type: physicochemical; settings: PBS pH 7.4 or PEG/water 40/60 v/v, 37° C., solutions changed daily; stable = less than 10% of variation of the drug release
Description: Four 2 cm pieces of coated stents as described above are placed into 100 ml of phosphate buffer solution (PBS) having a pH of 7.4. Another 4 pieces from each series are placed into 100 ml polyethylene glycol (PEG)/water solution (40/60 v/v, MW of PEG=400). The stent pieces are incubated at 37° C. in a shaker. The buffer and PEG solutions are changed daily and different assays are performed on the solution to determine the released 40-O-(2-hydroxyethyl)-rapamycin concentrations. Such assays can show a stable release of 40-O-(2-hydroxyethyl)-rapamycin from coated stents for more than 45 days. By the term “stable release of 40-O-(2-hydroxyethyl)-rapamycin” is meant less than 10% of variation of the drug release. Controlled release techniques used by a person skilled in the art allow an unexpected easy adaptation of the required drug release rate. Thus, by selecting appropriate amounts of reactants in the coating mixture it is possible to easily control the bioeffectiveness of the rapamycin or rapamycin derivastive coated stents.

[2] = system: ballooned carotid of Sprague Dawley rats; assay: Inhibition of restenosis at 14 days in the rat carotid stent model (perivascular local delivery); type: in vivo, Sprague Dawley rat; settings: administered locally (perivascular, osmotic pump) at 10 to 200 μg/day
Description: A.3 Inhibition of Restenosis at 14 Days in the Rat Carotid Stent Model
Male Sprague Dawley rats weighing […] are housed individually and allowed to acclimate prior to surgery. All animals receive standard rat chow and water ad libitum. Group size is 12 animals per group.
The drug(s) administration is perivascular. A segment of ballooned carotid is encircled with a 1 cm length of silastic tubing (0.25 inch inside diameter, 0.47 inch outside diameter) to which is attached a catheter which feeds into an osmotic pump containing either compound or vehicle. This delivery system provides continuous, local delivery to the adventitia of the wrapped portion of vessel. Local drug(s) administration ranges between 5 μg and 10 mg, locally per day, depending on the solubility characteristics of the individual compounds. […]
Animals are killed at 14 days post-balloon injury. […] Animals are killed by administration of an overdose of ketamine and rompun, the osmotic pumps are recovered and the volume of remaining content is recorded to ensure that pump failure has not occurred.
Carotid arteries are excised and immersion fixed, then transferred to Ringer's solution. […] The intimal lesion area and the medial area are determined by measurement of the internal elastic lamina, the external elastic lamina and the vessel/lumen interface.

[3] = system: balloon injured rat carotid arteries; assay: Inhibition of late neointimal lesion formation in the 28 day rat carotid artery balloon injury model; type: in vivo; settings: for percent inhibition of neointimal lesion formation: 28 days post-balloon injury
Description: A1. Inhibition of Late Neointimal Lesion Formation in the 28 Day Rat Carotid Artery Balloon Injury Model
Compounds of formula I are tested in the following rat model.
Rats are dosed orally with placebo or a compound of formula I. Daily dosing starts 3 days prior to surgery and continues for 31 days. Rat carotid arteries are balloon injured using a method described by Clowes et al. Lab. Invest. 1983;49;208-215. Following sacrifice at 28 days post-balloon injury, carotid arteries are removed and processed for histologic and morphometric evaluation. […] For example for 40-O-(2-hydroxyethyl)-rapamycin administered at 0.5, 1.0, and 2.0 mg/kg, the percent inhibition is similar at all three doses: inhibition is 31% at the lowest dose (0.5 mg/kg) and 39% at the highest dose (2.0 mg/kg). Compounds of formula I, e.g. 40-O-(2-hydroxyethyl)-rapamycin, have the beneficial effect to inhibit lesions at 4 weeks post-ballooning.

[4] = system: dialysis patients with indwelling large bore catheter; assay: Prevention or reduction of vascular access dysfunction after insertion of an indwelling catheter into the vein of a patient; type: in vivo; settings: daily dose of 0.75 to 20 mg, 3 month treatment, observation period of 6 months
Description: A5. Prevention or Reduction of Vascular Access Dysfunction in Association with the Insertion of an Indwelling Catheter into the Vein of a Patient
One hundred fifty prospective dialysis patients, who undergo successful insertion of an indwelling, large bore catheter, into a vein are selected for the study. […] In addition, patients may also be given a calcium antagonist, nitrates and/or anti-platelet agents. These drugs are administered for 3 consecutive months following catheter insertion.

[5] = system: New Zealand White rabbit iliac arteries (balloon injury and stent); assay: Inhibition of restenosis at 28 days in the rabbit iliac stent model; type: in vivo
Description: A.2 Inhibition of Restenosis at 28 Days in the Rabbit Iliac Stent Model
A combined angioplasty and stenting procedure is performed in New Zealand White rabbit iliac arteries. Iliac artery balloon injury is performed by inflating a 3.0 x 9.0 mm angioplasty balloon in the mid-portion of the artery followed by “pull-back” of the catheter for 1 balloon length. Balloon injury is repeated 2 times, and a 3.0×12 mm stent is deployed at 6 atm for 30 seconds in the iliac artery. Balloon injury and stent placement is then performed on the contralateral iliac artery in the same manner. A post-stent deployment angiogram is performed. All animals receive oral aspirin 40 mg/day daily as anti-platelet therapy and are fed standard low-cholesterol rabbit chow. Twenty-eight days after stenting, animals are anesthetized and euthanized and the arterial tree is perfused at 100 mmHg with lactated Ringer's for several minutes, then perfused with 10% formalin at 100 mmHg for 15 minutes. The vascular section between the distal aorta and the proximal femoral arteries is excised and cleaned of periadventitial tissue. The stented section of artery is embedded in plastic and sections are taken from the proximal, middle, and distal portions of each stent. All sections are stained with hematoxylin-eosin and Movat pentachrome stains. Computerized planimetry is performed to determine the area of the internal elastic lamina (IEL), external elastic lamina (EEL) and lumen. The neointima and neointimal thickness is measured both at and between the stent struts. The vessel area is measured as the area within the EEL. Data are expressed as mean±SEM. Statistical analysis of the histologic data is accomplished using analysis of variance (ANOVA) due to the fact that two stented arteries are measured per animal with a mean generated per animal. A P<0.05 is considered statistically significant.
A compound of formula I, e.g. 40-O-(2-hydroxyethyl)-rapamycin, is administered orally by gavage at a loading dose of 1.5 mg/kg one day prior to stenting, then dosed at 0.75 mg/kg/day from the day of stenting until day 27 post-stenting. In this model, the treatment with the compounds of formula I results in a marked reduction in the extent of restenotic lesion formation: for example, the treatment with 40-O-(2-hydroxyethyl)-rapamycin produces a significant (P<0.03) reduction in neointimal thickness (40% reduction), neointimal area (24% reduction), and percent arterial stenosis (26% reduction) with a significant 32% increase in lumen area. There is extensive neointimal formation in placebo-treated animals at 28 days, with the lesions consisting of abundant smooth muscle cells in proteoglycan/collagen matrix and apparent full endothelial healing.

[6] = oral loading dose 1.5 mg/kg, then 0.75 mg/kg/day to day 27, 28 days after stenting, P<0.03

CO[C@H]1C[C@@H]2CC[C@@H](C)[C@@](O)(O2)C(=O)C(=O)N2CCCC[C@H]2C(=O)O[C@H]([C@H](C)C[C@@H]2CC[C@@H](OCCO)[C@H](OC)C2)CC(=O)[C@H](C)/C=C(\C)[C@@H](O)[C@@H](OC)C(=O)[C@H](C)C[C@H](C)/C=C/C=C/C=C/1C [40-O-(2-hydroxyethyl)-rapamycin]
duration of stable release from coated stents [1]: more than 45 days | neointimal lesion formation at 14 days post ballooning [2]: reduces neointimal lesion formation | percent inhibition of neointimal lesion formation ([3]; 0.5 mg/kg oral daily): 31% | percent inhibition of neointimal lesion formation ([3]; 2.0 mg/kg oral daily): 39% | neointimal lesion formation at 28 days following balloon injury ([3]; oral dose of from 0.5 to 2.0 mg/kg): significantly reduce neointimal lesion formation | prevention or reduction of vascular access dysfunction after catheter insertion [4]: demonstrate the efficacy | histology of the intima in arterial segments ([5]; majority of arterial segments, 28 days after stenting): the intima is well healed | endothelialization of stented arteries (scanning electron microscopic analysis) ([5]; n=4 arteries, oral 1.5 mg/kg loading, 0.75 mg/kg/day, 28 days): 84% | increase in lumen area ([5]; oral loading dose 1.5 mg/kg, then 0.75 mg/kg/day to day 27, 28 days after stenting): 32% | reduction in neointimal area [5, 6]: 24% | reduction in neointimal thickness [5, 6]: 40% | reduction in percent arterial stenosis [5, 6]: 26%
